ChEMBL document CHEMBL5096192, “Recent advancements in anti-leishmanial research: Synthetic strategies and structural activity relationships” (Eur J Med Chem, 2021)

Key:
Leishmania donovani = assay: Antileishmanial activity against Leishmania donovani MHOM/IN/80/Dd8 intracellular amastigotes transfected with firefly luciferase gene infected in mouse J774.A1 cells assessed as parasite growth inhibition incubated for 96 hrs by Steady Glo reagent based luminescence assay; assay type: functional, organism-based; conditions: MHOM/IN/80/Dd8, J774.A1, 96 h
[1] = target: Trypanothione reductase (Leishmania donovani) (UniProt P39050); assay: Inhibition of Leishmania donovani trypanothione reductase expressed in Escherichia coli BL21(DE3) using TS2 and NADPH as substrate at 100 uM preincubated for 5 mins followed by substrate addition by DTNB-reagent based spectrophotometric method
Leishmania amazonensis [2] = assay: Antileishmanial activity against Leishmania amazonensis MHOM/BR/79/Maria intracellular amastigotes infected in mouse J774 macrophages assessed as inhibition of parasite growth incubated for 48 hrs by fluorometric analysis; assay type: functional, organism-based; conditions: J774, 48 h
Leishmania infantum [3] = assay: Antileishmanial activity against Leishmania infantum MCAN/ES/92/BCN83 intracellular amastigotes infected in mouse J774 macrophages assessed as inhibition of parasite growth incubated for 48 hrs by fluorometric analysis; assay type: functional, organism-based; conditions: MCAN/ES/92/BCN83, J774, 48 h
Leishmania amazonensis [4] = assay: Antileishmanial activity against promastigote form of Leishmania amazonensis MHOM/BR/79/Maria assessed as inhibition of parasite growth measured after 48 hrs by resazurin staining based fluorescence analysis; assay type: functional, organism-based
Leishmania infantum [5] = assay: Antileishmanial activity against promastigote form of Leishmania infantum MCAN/ES/92/BCN83 assessed as inhibition of parasite growth measured after 48 hrs by resazurin staining based fluorescence analysis; assay type: functional, organism-based; conditions: MCAN/ES/92/BCN83, 48 h

Sequence of Trypanothione reductase (Leishmania donovani) (P39050 whole entry): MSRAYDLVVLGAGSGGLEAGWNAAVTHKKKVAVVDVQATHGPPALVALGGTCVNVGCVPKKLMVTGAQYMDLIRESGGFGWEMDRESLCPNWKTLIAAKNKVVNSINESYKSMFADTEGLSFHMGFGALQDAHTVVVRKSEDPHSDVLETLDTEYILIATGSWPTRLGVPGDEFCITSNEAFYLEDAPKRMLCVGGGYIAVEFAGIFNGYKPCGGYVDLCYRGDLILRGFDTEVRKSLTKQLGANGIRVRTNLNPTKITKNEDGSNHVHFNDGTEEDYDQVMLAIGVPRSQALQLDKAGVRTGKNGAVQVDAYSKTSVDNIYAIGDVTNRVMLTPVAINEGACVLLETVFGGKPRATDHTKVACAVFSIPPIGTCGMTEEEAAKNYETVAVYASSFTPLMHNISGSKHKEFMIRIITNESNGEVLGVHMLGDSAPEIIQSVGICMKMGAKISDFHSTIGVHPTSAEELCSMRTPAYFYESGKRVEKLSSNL

Row | SMILES | IC50 (Leishmania donovani) [µM] | inhibition [1] [%] | IC50 (Leishmania amazonensis [2]) [µM] | IC50 (Leishmania infantum [3]) [µM] | IC50 (Leishmania amazonensis [4]) [µM] | IC50 (Leishmania infantum [5]) [µM]
1 | CCOC(=O)c1cc2c([nH]c3ccccc32)c(C(C(=O)NC(C)(C)C)N(Cc2ccc(CC)cc2)C(=O)c2ccccc2)n1 (stereo unspecified) | 2.43 | 87 |  |  |  | 
2 | FC(F)(F)c1nc2cc(Cl)c(Cl)cc2[nH]1 |  |  | 9 | 15.8 | 4.11 | 8.63
